Experimental data from US4061740A, “Liquid compositions containing a polyethylene glycol safener and an organophosphorus pesticide” (priority 1976, dated 1977).

Test system: Root-knot Nematode (Meloidogyne incognita)
Test: Control of root-knot nematode on tomato in the greenhouse
Type: in vivo, Meloidogyne incognita (on tomato, Lycopersicon esculentum)
Text: Evaluation of a liquid formulation consisting of a solution of 2-diethoxyphosphinylimino-1,3-dithietane in polyethylene glycol for the control of root-knot nematode (Meloidogyne incognita) on tomato in the greenhouse.
1. 2-Diethoxyphosphinylimino-1,3-dithietane, 91% real. (Active ingredient; a.i.)
2. Liquid formulation consisting of 20.9%, by weight, of a.i. and 79.1%, by weight, of polyethylene glycol of an average molecular weight of 400.
Tomato (Lycopersicon esculentum; Cv. Bonny Best).
Root-knot Nematode (Meloidogyne incognita) inoculum. [formula] 2-Diethoxyphosphinylimino-1,3-dithietane at 0.75 mg, 1.5 mg and 3.0 mg/liter of soil. Polyethylene glycol blank at 14.4 mg/liter of soil.
All compounds are made up as acetone solutions. One liter of moist potting soil is placed in a suitable stainless steel beaker. One ml of candidate solution is distributed, drop by drop, over the surface of the soil. The beaker is then capped and placed on an off-center rotary mixer and mixed for 2 minutes (about 60 revolutions). After mixing, the soil is divided between two 0.5 liter paper cups by filling the cups half full of soil, then distributing 25 ml root-knot nematode inoculum on the soil and filling the remainder of the container with treated soil. Seedling tomato plants are transplanted into the cups of soil the same day, watered and removed to the greenhouse. After about 4 weeks, the tomato plants are carefully removed from the containers, the soil washed from the roots, and the roots are then examined for nematode galling.
The roots are indexed for galling by the following system: […]

With `CCOP(=O)(N=C1SCS1)OCC` [Formulation 1, 2-Diethoxyphosphinylimino-1,3-dithietane] the “Root-knot index, Average of 3 Replicates” value (0.75 mg/l active ingredient) was 7.0, the Root-knot index (0.75 mg/l active ingredient, replicate 1) was 8 (61-70% of roots galled) and the Root-knot index (0.75 mg/l active ingredient, replicate 2) was 8 (61-70% of roots galled). For the same compound, the Root-knot index (0.75 mg/l active ingredient, replicate 3) was 5 (31-40% of roots galled), the “protection of the tomato roots from the root-knot nematode” value (shortened to “protection of the tomato roots”) (0.75 mg/l of soil) was “poor” and the “Root-knot index, Average of 3 Replicates” value (1.5 mg/l active ingredient) was 4.7. For the same compound, the Root-knot index (1.5 mg/l active ingredient, replicate 1) was 6 (41-50% of roots galled), the Root-knot index (1.5 mg/l active ingredient, replicate 2) was 6 (41-50% of roots galled) and the Root-knot index (1.5 mg/l active ingredient, replicate 3) was 2 (6-10% of roots galled). For the same compound, the “protection of the tomato roots” value (1.5 mg/l of soil) was “poor”, the Root-knot index (3.0 mg/l active ingredient, replicate 1) was 0 and the Root-knot index (3.0 mg/l active ingredient, replicate 2) was 0. For the same compound, the Root-knot index (3.0 mg/l active ingredient, replicate 3) was “T (less than 1% of roots with galls.)” and the “protection of the tomato roots” value (3.0 mg/l of soil) was “excellent”.
